These are literature values, as cited in US10149821B2, “Orosoluble and/or effervescent compositions containing at least a salt of S-adenosyl methionine (SAMe)” (priority 2009, dated 2018).

For data set [1] the following is noted: oral intake, SAMe radiolabeled on the carbon of the methyl group.
The conditions of data set [2]: temperatures above 0° C.
Assay in data set [3]: not given
This is another data set of the same source.

Consider `C[S+](CC[C@H](N)C(=O)O)C[C@H]1O[C@@H](n2cnc3c(N)ncnc32)[C@H](O)[C@@H]1O` (some centres unmarked) [SAMe, S-adenosyl methionine], for which, in data set [1], the “hepatic metabolism, % of the administered radioactivity” value is listed as “about 60%”. Further, the “plasma levels of the non-modified molecule, % of the administered dose” value (oral intake, swallowable gastro-protected tablets) is given as 5-10%. The “plasma bioavailability, % of the administered dose” value (parenteral administration (endovenous or intramuscular)) is 90-100%. Moreover, the stability result in data set [2] is listed as “very unstable”. The “half-life in the liver” value in data set [3] is “about 5 minutes”.
